Data set [1] has as its target T1, Plk1-Flag-His6 tag fusion enzyme (Homo sapiens, UniProt P53350).
T1 construct: FLAG (C); His6 (C); made in house; host or cells: Sf9 insect cells (baculovirus, pFastBac), treated with okadaic acid before harvest; The substrate was made in E. coli BL21 (pGEX-2T)
As to the kind of experiment: Plk1 Inhibition Assay. The format is biochemical. To be noted: absolute IC50, 5.0 μM ATP, GST-Cdc25c (1-206) substrate, 60 min; MSR 3.6. From the text:
Human Plk1 cDNA may be directly linked at one of its termini with a polynucleotide sequence expressing a His6 tag, such as the C-terminal FLAG-His6 tag, and inserted into an appropriate expression vector, such as a pFastBac™ vector (Invitrogen) and transfected into an appropriate system, such as baculovirus similar to what has been reported by Yue-Wei Qian, et al., Science, 282, 1701 (1998) for xPlkk1. If a viral expression system is used, then the virus (e.g., baculovirus bearing a Plk1-Flag-His6 tag polynucleotide construct) is infected into a culture of a suitable host cell, such as Sf9 cells. […]
Plk1 kinase reactions contain Plk1-Flag-His6 tag fusion enzyme (0.2 ng/μL) in a buffer containing 50 mM HEPES, pH 7.3, 1.0 mM dithiothreitol, 5.0 μM ATP, 10 mM MgCl2, 0.01% TRITON® X-100, 0.4 μCi ^33P-ATP, and […] GST-Cdc25c (1-206) peptide. […] Wells are dried before addition of 40 μL of MicroScint™20 (Packard) and then counted on a Wallac MICROBETA® Jet. The percentage inhibition values from the 10-point concentration response data are subsequently analyzed, for example, using ACTIVITY BASE™ software (IDBS), using a 4-parameter logistic equation. Absolute IC50 values are calculated from the resulting curve fit.

For another data set, the system named is HeLa Cells. The data set is described as follows: pHH3(S10), Mitotic Cells, and DNA Content Assays. Format: cell-based. To be noted: Homo sapiens, 23 hours exposure. As to the method:
HeLa Cells are plated at 200 cells/well in 96 well […] BIOCOAT™ plates, and are incubated in MEM (Minimum Essential Medium) with 10% FBS (Fetal Bovine Serum) in 37° C., 5% CO2 for 24 hours. Cells are treated by adding compound (in 0.25% DMSO) to the medium, dosing at 10 points across the range 0.5 μM to 0.0098 μM. After 23 hours exposure to the compounds, cells are fixed, for example with the PREFER™ fixative for 30 min then are permeablized with 0.1% TRITON® X100 in phospate buffered saline (PBS) solution for 15 min. Cells are washed 3 times with PBS then digested with 50 μg/mL RNAse. Primary antibody, anti-phosphohistone H3 Serine 10, is added at 1:500 in PBS with 1% bovine serum albumin (BSA) to the cells over night at 4° C. After 3 PBS washes, cells are incubated with Alexa488 labeled secondary antibody for 1 hour at room temperature. Again they are washed 3 times with PBS, and then 15 μM propidium iodide is added for 30 min to stain nuclei. Fluorescence Plates are scanned with ACUMEN EXPLORER™ [Laser-scanning fluorescence microplate cytometer (comprising of 488 nm argon ion laser excitation and multiple photomultiplier tube detection), manufactured by TTP LABTECH LTD] to measure phosphohistone H3, DNA content and mitotic cells as measured by DNA condensation. Image analysis are based on cellular fluorescent signals for identifying cells in different subpopulations. pHH3(S10) positive cells are identified by mean intensity at 500-530 nm above the threshold. Total intensity at 655-705 nm from propidium iodide/DNA is used to identify individual cells (cells with DNA content from 2N to 4N) and subpopulations in cell cycle (2N cells, 4N cells). Peak intensity at 575-640 nm is used to identify DNA condensation that is used as the marker to identify mitotic cells among 4N cells. Assay outputs are percentage of each identified subpopulations, % pHH3, % 2N, % 4N, % mitotic and total cell number. The EC50 is determined by curve fitting to a four parameter logistic for each output using ACTIVITY BASE™.

The test system of a further data set is HCT116 cells. The data set is described as follows: Antiproliferative Assay. Format: cell-based. Particulars: Homo sapiens, HCT-116, 72 hours, Alamar Blue, n=2, MSR 3.1. As to the method: The effects of compounds on cell proliferation can be determined using cells and cell proliferation methods well-known in the art (Robert C. Squatrito et al., Gynecological Oncology, 58, 101-105, (1995)). For example, HCT116 cells, which may be obtained from the American Type Culture Collection, may be seeded at ˜2000 cells/well in 96-well plates and allowed to attach overnight in a humidified CO2 incubator at 37° C. Following the 20-24 hour incubation, half-log serially diluted compounds are added and the plates are returned to the incubator. After an appropriate length of exposure (e.g., 72 hours), cell proliferation is estimated using well-known methods. In one method, 10 μL of a tetrazolium salt, such as Alamar Blue™ is added to the cell plates.

A further data set relates to NCIH460. To be noted: NCIH460 murine xenograft; cited from earlier work.
For the next data set, the system named is HCT116. To be noted: HCT116 murine xenograft; cited from earlier work.
Another data set has as its system A549. To be noted: A549 murine xenograft; cited from earlier work.
The conditions of data set [2]: in man; cited from earlier work.
For data set [3] the following is noted: in man, phase II clinical trials; cited from earlier work.

Where two headings read alike, the source gives them in different places.

One may read the IC50 as the concentration that gives 50% inhibition. As a reminder, the EC50 is the concentration at which the effect is half-maximal.

T1 sequence (P53350 whole entry, the tested form may be a part): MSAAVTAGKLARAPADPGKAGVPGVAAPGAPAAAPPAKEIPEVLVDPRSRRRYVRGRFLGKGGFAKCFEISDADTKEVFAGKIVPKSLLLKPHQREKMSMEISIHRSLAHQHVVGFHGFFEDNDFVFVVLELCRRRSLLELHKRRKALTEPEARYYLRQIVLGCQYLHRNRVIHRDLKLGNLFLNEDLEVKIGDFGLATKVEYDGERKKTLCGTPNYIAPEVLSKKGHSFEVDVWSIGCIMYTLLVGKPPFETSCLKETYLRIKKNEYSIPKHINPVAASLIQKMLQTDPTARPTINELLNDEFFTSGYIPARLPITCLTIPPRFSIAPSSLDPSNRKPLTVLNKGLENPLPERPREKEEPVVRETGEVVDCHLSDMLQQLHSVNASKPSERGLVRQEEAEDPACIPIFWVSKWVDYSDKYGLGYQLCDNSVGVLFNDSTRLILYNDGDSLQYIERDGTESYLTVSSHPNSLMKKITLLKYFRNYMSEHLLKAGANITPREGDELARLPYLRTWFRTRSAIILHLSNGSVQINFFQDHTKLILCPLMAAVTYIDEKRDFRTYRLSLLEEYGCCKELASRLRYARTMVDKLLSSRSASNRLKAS

Consider `CC(N)c1ccc(F)cc1-c1cccc2cc(-c3nc(NCCn4ccnn4)ncc3F)sc12` (racemic) [Example 57, N-(2-(1H-1,2,3-Triazol-1-yl)ethyl)-4-(7-(2-(1-amino-ethyl)-5-fluorophenyl)-benzo[b]thiophen-2-yl)-5-fluoropyrimidin-2-amine], for which the values for the IC50 (in data set [1]; in the data set on HCT116 cells) were 0.011 µM and 0.119 µM, respectively. The EC50 in the data set on HeLa Cells (MSR 2.4, read-out: DNA content EC50) stood at 0.04 µM; in the data set on HeLa Cells (MSR 2.5, read-out: mitotic EC50), 0.036 µM; in the data set with HeLa Cells (MSR 2.6, read-out: pHH3(s10) EC50) it was 0.037 µM.
Regarding `CC[C@@H]1C(=O)N(C)c2cnc(Nc3ccc(C(=O)NC4CCN(C)CC4)cc3OC)nc2N1C1CCCC1` [BI-2536], the “activity in preclinical model” value with NCIH460, in the data set on HCT116 and in the data set with A549 was “demonstrated activity” each time. Besides, in data set [2], the “clearance (CL)” value is > 1000 mL/min. For the same molecule, the dose-limiting toxicity result in data set [3] is recorded as “dose limited by myelosupression”.

The record behind these values is patent publication US8063035B2, “Triazolyl aminopyrimidine compounds” (Eli Lilly and Company, priority 2007, dated 2011).
